Measurements from patent US9700632B2, “Dendrimers, conjugates and methods thereof” (Centre for BioSeparation Technology—VIT, priority 2012, dated 2017).
≈ marks a conversion by molar mass, not a printed value.

Columns and labels:
[1] = system: HCT-15 human colon cancer cells; experiment: cells; details: HCT-15, 48 h, read-out: IC50 HCT-15
Experimental: Cells are incubated for 48 hr with different equivalent doxorubicin concentrations and IC50 values in terms of doxorubicin were calculated using MTT assay.

[2] = system: PC3 prostate cancer cells; experiment: cells; details: Homo sapiens, PC-3, 48 h, read-out: IC50 PC3
[3] = system: PC3 cells; experiment: MTT cytotoxicity assay of lupeol and dendrimer-lupeol conjugates; assay type: cell-based; details: Homo sapiens, PC-3, 48 h, read-out: percentage inhibition (cytotoxic effect, MTT)
Experimental: Human prostate cancer cells (PC-3 cells) are obtained from NCCS, Pune, India. The cells are grown in RPMI 1640 medium supplemented with 10% of bovine fetal serum and antibiotics (100 IU of penicillin/[…] of streptomycin). The cells are maintained in a 25 cm^2 T-flask and incubated at 37° C. under 5% CO2 in a humidified atmosphere. The cell viability is measured by staining the cells with trypan blue and counted in a haemocytometer under a light microscope.
The assay is performed in triplicates.
The cytotoxicity is quantitatively estimated by a non-radioactive, colorimetric assay system using a tetrazolium salt, 3-[4,5-dimethylthiazol-2-yl]-2,5-diphenil-tetrazolium bromide (MTT).
The cytotoxic effect of lupeol and the dendrimer lupeol conjugate is determined using PC3 cells. […] Doxorubicin is used as positive control for each experiment. […] This clearly showcases that the increase in cytotoxic activity of the dendrimer-lupeol conjugate is not due to the dendrimer or lupeol alone but because of the conjugate of dendrimer and lupeol.

| Compound | IC50 [1] | IC50 [2] | inhibition at 10 µg/mL [3] |
| --- | --- | --- | --- |
| COc1cccc2c1C(=O)c1c(O)c3c(c(O)c1C2=O)C[C@@](O)(C(=O)CO)C[C@@H]3O[C@H]1C[C@H](N)[C@H](O)[C@H](C)O1 [Free doxorubicin, doxorubicin] | 4.77 µg/mL (≈ 8.78 µM) | 5.13 µg/mL (≈ 9.45 µM) |  |
| C=C(C)[C@@H]1CC[C@]2(C)CC[C@]3(C)[C@H](CC[C@@H]4[C@@]5(C)CC[C@H](O)C(C)(C)[C@@H]5CC[C@]43C)[C@@H]12 [free lupeol, lupeol] |  |  | 7.74% |
